From patent US20190308933A1, “PHENYLAMIDINES AND THE USE THEREOF AS FUNGICIDES” (priority 2016, published 2019)
Where two headings read alike, the source gives them in different places.

Columns and labels:
[1] = Log P measurement by HPLC on reversed phase columns (EEC directive 79/831 Annex V.A8); assay type: physicochemical; settings: LC-UV; for chromatographic logP: reversed phase HPLC column
Experimental: [table] Measurement of Log P values was performed according to EEC directive 79/831 Annex V.A8 by HPLC (High Performance Liquid Chromatography) on reversed phase columns with the following methods: If more than one Log P value is available within the same method, all the values are given and separated by “+”. […] Lambda-max-values were determined using UV-spectra from 200 nm to 400 nm and the peak values of the chromatographic signals.

[2] = test system: Phakopsora pachyrhizi; experiment: In vivo preventive test on Phakopsora (soybeans); parameters: species or system Phakopsora pachyrhizi (soybean rust) on soybeans; settings: 168 h, young soybean plants sprayed, 10 ppm of active ingredient, evaluated 7 days after inoculation, 0% = untreated control, 100% = no disease, read-out: efficacy
Experimental: Example: In Vivo Preventive Test on Phakopsora Test (Soybeans)
To produce a suitable preparation of active compound, 1 part by weight of active compound is mixed with the stated amounts of solvent and emulsifier, and the concentrate is diluted with water to the desired concentration.
To test for preventive activity, young plants are sprayed with the preparation of active compound at the stated rate of application. After the spray coating has dried on, the plants are inoculated with an aqueous spore suspension of the causal agent of soybean rust (Phakopsora pachyrhizi) and stay for 24 h without light in an incubation cabinet at approximately 24° C. and a relative atmospheric humidity of 95%.
The plants remain in the incubation cabinet at approximately 24° C. and a relative atmospheric humidity of approximately 80% and a day/night interval of 12 h.
The test is evaluated 7 days after the inoculation. 0% means an efficacy which corresponds to that of the untreated control, while an efficacy of 100% means that no disease is observed.

[3] = acidic range, 0.1% formic acid in water and acetonitrile as eluent (linear gradient 10% to 95% acetonitrile), read-out: LogP [a]
[4] = neutral range, 0.001 molar ammonium acetate solution in water and acetonitrile as eluent (linear gradient 10% to 95% acetonitrile), read-out: LogP [b]
[5] = acidic range, 0.1% formic acid in water and acetonitrile as eluent (linear gradient 10% to 95% acetonitrile)
[6] = neutral range, 0.001 molar ammonium acetate solution in water and acetonitrile as eluent (linear gradient 10% to 95% acetonitrile)

| SMILES | chromatographic logP [1, 3] | chromatographic logP [1, 4] | LogP [a] [1, 5] | LogP [b] [1, 6] | pest or weed control at 10 ppm [2] |
| --- | --- | --- | --- | --- | --- |
| CCN(C)C=Nc1cc(Cl)c(Cc2ccc(F)cc2F)cc1C [Example 22, N′-[5-chloro-4-[(2,4-difluorophenyl)methyl]-2-methylphenyl]-N-ethyl-N-methylmethanimidamide] | 1.63 |  |  |  | 90 to 100% |
| CCN(C)C=Nc1cc(Cl)c(Cc2cccc(F)c2F)cc1C [Example 24, N′-[5-chloro-4-[(2,3-difluorophenyl)methyl]-2-methylphenyl]-N-ethyl-N-methylmethanimidamide] | 1.63 | 4.92 |  |  | 90 to 100% |
| CCN(C)C=Nc1cc(Cl)c(Cc2ccccc2OC)cc1C [Example 29] |  |  | 1.58^[a]; | 4.95^[b] |  |
| C=C(c1ccccc1)c1cc(Cl)c(N=CN(C)CC)cc1C [Example 31, N′-[2-chloro-5-methyl-4-(1-phenylethen-1-yl)phenyl]-N-ethyl-N-methylmethanimidamide] | 1.66 | 4.93 |  |  |  |
| CCN(C)C=Nc1cc(F)c(Cc2ccccc2F)cc1C [Example 33, N-ethyl-N′-[5-fluoro-4-[(2-fluorophenyl)methyl]-2-methylphenyl]-N-methylmethanimidamide] | 1.41 | 4.37 |  |  |  |
| CCN(C)C=Nc1cc(C)c(Cc2ccccc2)cc1Cl [Example 3, N′-(4-benzyl-2-chloro-5-methylphenyl)-N-ethyl-N-methylmethanimidamide] | 1.49 |  |  |  | 90 to 100% |
| C=C(c1ccccc1)c1cc(C)c(N=CN(C)CC)cc1Cl [Example 19, N′-[5-chloro-2-methyl-4-(1-phenylethen-1-yl)phenyl]-N-ethyl-N-methylmethanimidamide] | 1.58 | 5.24 |  |  | 80 to 89% |
| CCN(C)C=Nc1cc(C)c(Cc2ccc(F)cc2F)cc1C [Example 9, N′-[4-[(2,4-difluorophenyl)methyl]-2,5-dimethylphenyl]-N-ethyl-N-methylmethanimidamide] | 1.79 | 4.86 |  |  | 90 to 100% |
| CCN(C)C=Nc1cc(C)c(C2(c3ccccc3)CC2(F)F)cc1C (stereo not drawn) [Example 14, N′-[4-(2,2-difluoro-1-phenylcyclopropyl)-2,5-dimethylphenyl]-N-ethyl-N-methylmethanimidamide] | 1.63 |  |  |  | 90 to 100% |
| CCN(C)C=Nc1cc(F)c(Cc2ccc(F)cc2F)cc1C [Example 35, N′-[4-[(2,4-difluorophenyl)methyl]-5-fluoro-2-methylphenyl]-N-ethyl-N-methylmethanimidamide] | 1.52 | 4.54 |  |  |  |
| CCN(C)C=Nc1cc(C)c(Cc2ccccc2Cl)cc1Cl [Example 28, N′-[2-chloro-4-[(2-chlorophenyl)methyl]-5-methylphenyl]-N-ethyl-N-methylmethanimidamide] | 1.63 | 4.93 |  |  |  |
| CCN(C)C=Nc1cc(C)c(C(C)c2ccccc2)cc1Cl (stereo not drawn) [Example 27, N′-[2-chloro-5-methyl-4-(1-phenylethyl)phenyl]-N-ethyl-N-methylmethanimidamide] | 1.61 | 4.7 |  |  |  |
| CCN(C)C=Nc1cc(F)c(C(C)c2ccccc2)cc1C (stereo not drawn) [Example 34, N-ethyl-N′-[5-fluoro-2-methyl-4-(1-phenylethyl)phenyl]-N-methylmethanimidamide] | 1.55 | 4.63 |  |  |  |
| CCN(C)C=Nc1cc(C)c(Cc2ccccc2)cc1C [Example 11, N′-(4-benzyl-2,5-dimethylphenyl)-N-ethyl-N-methylmethanimidamide] | 1.58 | 4.9 |  |  | 90 to 100% |
| CCN(C)C=Nc1cc(C)c(Cc2ccccc2OC)cc1Cl [Example 26, N′-[2-chloro-4-[(2-methoxyphenyl)methyl]-5-methylphenyl]-N-ethyl-N-methylmethanimidamide] | 1.53 | 4.45 |  |  |  |
| CCN(C)C=Nc1cc(Cl)c(C(C)c2ccccc2)cc1C (stereo not drawn) [Example 18, N′-[5-chloro-2-methyl-4-(1-phenylethyl)phenyl]-N-ethyl-N-methylmethanimidamide] | 1.58 | 5.32 |  |  | 90 to 100% |
| CCN(C)C=Nc1cc(C)c(Cc2ccccc2C#N)cc1C [Example 8, N′-[4-[(2-cyanophenyl)methyl]-2,5-dimethylphenyl]-N-ethyl-N-methylmethanimidamide] | 1.47 | 4.15 |  |  | 90 to 100% |
| CCN(C)C=Nc1cc(Cl)c(Cc2ccccc2Cl)cc1C [Example 30, N′-[5-chloro-4-[(2-chlorophenyl)methyl]-2-methylphenyl]-N-ethyl-N-methylmethanimidamide] | 1.81 | 5.55 |  |  | 90 to 100% |
| CCN(C)C=Nc1cc(C)c(C2(c3ccccc3)CC2(Br)Br)cc1C (stereo not drawn) [Example 16, N′-[4-(2,2-dibromo-1-phenylcyclopropyl)-2,5-dimethylphenyl]-N-ethyl-N-methylmethanimidamide] | 1.89 |  |  |  |  |
| CCN(C)C=Nc1cc(C)c(Cc2ccccc2F)cc1C [Example 10, N-ethyl-N′-[4-[(2-fluorophenyl)methyl]-2,5-dimethylphenyl]-N-methylmethanimidamide] | 1.6 | 4.87 |  |  | 90 to 100% |
| CCN(C)C=Nc1cc(Cl)c(Cc2ccccc2F)cc1C [Example 5] |  |  | 1.58[a]; | 2.99[b] |  |
| CCN(C)C=Nc1cc(F)c(Cc2ccccc2OC)cc1C [Example 32, N-ethyl-N′-[5-fluoro-4-[(2-methoxyphenyl)methyl]-2-methylphenyl]-N-methylmethanimidamide] | 1.46 | 4.34 |  |  |  |

The next lines start with results.

| chromatographic logP [1, 3] | chromatographic logP [1, 4] | LogP [a] [1, 5] | LogP [b] [1, 6] | SMILES | pest or weed control at 10 ppm [2] |
| --- | --- | --- | --- | --- | --- |
| 1.41 | 3.86 |  |  | CCN(C)C=Nc1cc(C)c(Cc2ccccc2C#N)cc1Cl [Example 1, N′-[2-chloro-4-[(2-cyanophenyl)methyl]-5-methylphenyl]-N-ethyl-N-methylmethanimidamide] | 80 to 89% |
| 2 | 4.62 |  |  | CCN(C)C=Nc1cc(F)c(Cc2ccccc2)cc1C [Example 20, N′-(4-benzyl-5-fluoro-2-methylphenyl)-N-ethyl-N-methylmethanimidamide] | 90 to 100% |
| 1.72 | 5.16 |  |  | CCN(C)C=Nc1cc(Cl)c(Cc2ccccc2)cc1C [Example 6, N′-(4-benzyl-5-chloro-2-methylphenyl)-N-ethyl-N-methylmethanimidamide] | 90 to 100% |
| 2.05 | 6.02 |  |  | CCN(C)C=Nc1cc(Cl)c(Cc2ccccc2-c2ccccc2)cc1C [Example 25, N′-[5-chloro-2-methyl-4-[(2-phenylphenyl)methyl]phenyl]-N-ethyl-N-methylmethanimidamide] |  |
| 1.52 | 4.5 |  |  | CCN(C)C=Nc1cc(C)c(Cc2ccccc2F)cc1Cl [Example 2, N′-[2-chloro-4-[(2-fluorophenyl)methyl]-5-methylphenyl]-N-ethyl-N-methylmethanimidamide] | 90 to 100% |
| 1.66 | 5.54 |  |  | CCN(C)C=Nc1cc(Cl)c(Cc2ccccc2C)cc1C [Example 23, N′-[5-chloro-2-methyl-4-[(2-methylphenyl)methyl]phenyl]-N-ethyl-N-methylmethanimidamide] | 90 to 100% |
| 1.85 |  |  |  | CCN(C)C=Nc1cc(C)c(C2(c3ccccc3)CC2)cc1C [Example 13, N′-[2,5-dimethyl-4-(1-phenylcyclopropyl)phenyl]-N-ethyl-N-methylmethanimidamide] | 90 to 100% |
| 1.83 |  |  |  | CCN(C)C=Nc1cc(C)c(C2(c3ccccc3)CC2(Cl)Cl)cc1C (stereo not drawn) [Example 15, N′-[4-(2,2-dichloro-1-phenylcyclopropyl)-2,5-dimethylphenyl]-N-ethyl-N-methylmethanimidamide] |  |
| 1.38 | 4.38 |  |  | CCN(C)C=Nc1cc(Cl)c(Cc2ccccc2C#N)cc1C [Example 4, N′-[5-chloro-4-[(2-cyanophenyl)methyl]-2-methylphenyl]-N-ethyl-N-methylmethanimidamide] |  |
| 1.92 | 5.16 |  |  | CCN(C)C=Nc1cc(C)c(Cc2ccccc2Cl)cc1C [Example 7, N′-[4-[(2-chlorophenyl)methyl]-2,5-dimethylphenyl]-N-ethyl-N-methylmethanimidamide] |  |
